Data taken from US20230141777A1, “COMPOSITION WHICH IS FOR TREATING OR PREVENTING RENAL CELL CANCER AND CONTAINS D-ALLOSE AS ACTIVE INGREDIENT, AND METHOD FOR TREATING OR PREVENTING CANCER USING SAME” (NATIONAL UNIVERSITY CORPORATION KAGAWA UNIVERSITY, priority 2020, published 2023).
“Also recorded” adds a separate entry of the source.

Key:
[1] = Change in tumor D-allose concentration after intraperitoneal or oral administration of D-allose to renal cell carcinoma xenotransplantation mouse model (HPLC); assay type: in vivo; details: for D-allose detected in tumor: by 1 hour after oral administration
Description: (§1) The experiment was conducted using two different human renal cell carcinoma cell lines (Caki-1, ACHN). Each of the cells was cultured in a moist environment at 37° C., 5% CO2 using 10% fetal bovine serum and RPMI-1640 culture solution (2000 mg D-glucose/L) containing HEPES buffer and penicillin-streptomycin. The renal cell carcinoma xenotransplantation mouse model was prepared by adjusting cultured cells to a 1.0×10^5 cell/mL cell suspension with MEM culture solution, injecting 0.1 mL into the femoral subcutaneous tissue of Female athymic nude mice (BALB/c nu/nu, 6 weeks old), and confirming a tumor volume of 200 mm^3 or greater after 1 week, and it was used for the following experiment.
In a xenotransplantation mouse model of two different human renal cell carcinoma cell lines (Caki-1, ACHN), tumors were enucleated from the mice at the 1st hour, 2nd hour and 4th hour before and after administration of D-allose by intraperitoneal administration (FIGS. 1(A) and (B)) or oral administration (FIGS. 1(C) and (D)) of a solution of rare sugar D-allose prepared using physiological saline to 400 mg/kg/0.2 mL. The monosaccharides in the supernatant obtained by ultrasonic disruption of the tumors in 1 mL of PBS and centrifugal separation at 3000 rpm for 5 minutes were labeled with ABEE (4-aminobenzoic acid ethyl ester) and the D-allose was quantitatively analyzed by HPLC (high performance liquid chromatography) (FIG. 1).

[2] = system: human renal cell carcinoma cell line Caki-1 xenotransplantation mouse model; assay: Change in tumor volume and tumor histology in renal cell carcinoma xenotransplantation mouse model by oral administration of D-allose; assay type: in vivo; details: Caki-1 xenograft
Description: as §1
(§2) A D-allose-containing solution was orally administered from day 1, where “day 0” was defined as the day when the tumor size of the renal cell carcinoma xenotransplantation mouse model prepared using Caki-1 as the human renal cell carcinoma cell line reached 200 mm^3 or greater.
(§3) Either 0.2 mL physiological saline or 0.2 mL physiological saline dissolving 400 mg/kg D-allose was injected into the esophagus of mice divided into 2 groups (control group and D-allose group), through a Neraton catheter. The administration was carried out once a day for a total of 32 consecutive days. The mouse body weights and the long and short diameters of the tumors were measured twice a week. The tumor volumes were calculated as: tumor long diameter×short diameter×short diameter×0.5. The livers and kidneys were extracted with the tumors from the mice on the 32nd day after the start of oral administration and used for the subsequent experiment.
(§4) The tumors, kidneys and livers were extracted from the renal cell carcinoma xenotransplantation mouse models (control group and D-allose-administered group, 32nd day after start of administration), and the tissues were fixed with 4% paraformaldehyde/phosphate buffer, embedded in paraffin and sliced to thicknesses of 4 μm. The thin slices were stained with hematoxylin-eosin staining (HE staining) and observed (FIG. 3, FIG. 5 and FIG. 6).

[3] = Body weight and HE staining of kidney and liver tissue in renal cell carcinoma xenotransplantation mouse model after oral D-allose; assay type: in vivo
Description: as §2, §3, §4

[4] = system: human colorectal cancer cell line (DLD-1) xenotransplantation mice; assay: Change in tumor volume in colorectal cancer xenotransplantation mouse model by administration of D-allose; assay type: in vivo; details: DLD-1 xenograft, Mann-Whitney U test
Description: A cell suspension containing 2.0×10^6 cells of a human colorectal cancer cell line (DLD-1) was injected into femoral subcutaneous tissue of Male athymic nude mice (BALB/c Nude (nu/nu)mice), and adjustment of D-allose or D-glucose was initiated with “day 0” defined as the day when the tumor volume reached about 100 to 150 mm^3.
(§5) D-allose or D-glucose was intraperitoneally administered at 400 mg/kg to colorectal cancer xenotransplantation mice whose tumor volumes had reached about 100 mm^3. Physiological saline was used as the solvent for adjustment to 0.2 ml, and administration was once per day for a total of 30 days. The tumor volumes were measured every 6 days.
as §5, with “orally” for “intraperitoneally”, “100” for “400”, “100 to 150” for “100”, “Distilled water” for “Physiological saline”

[5] = system: human renal cell carcinoma cell line Caki-1; assay: Intracellular reactive oxygen species (ROS) production, DCF-DA fluorescence, Caki-1; assay type: cell-based; details: Caki-1, 50 mM D-allose, co-culture 1 hour, vs DMSO
Description: (§6) After seeding human renal cell carcinoma cell line (Caki-1 or ACHN) at 5.0×10^5 in a 100 mm dish, culturing for 24 hours and then co-culturing with DMSO or D-allose (50 mM) for 1 hour, 10 μM 2,7-Dichlorofluorescin diacetate (DCF-DA; D6883, Sigma-Aldrich, USA) was added and the mixture was allowed to stand at 37° C. for 30 minutes. The cells were recovered with trypsin treatment and collected by centrifugal separation for 5 minutes at 3500×g, after which they were resuspended in ice-cold PBS and a CytoFLEX S (Beckman Coulter, CA, USA) was used to detect the DCF-DA fluorescence. Each experiment was conducted 3 times, and the data were analyzed using CytExpert software and recorded as the average value±SE (FIG. 8).

[6] = system: human renal cell carcinoma cell line ACHN; assay: Intracellular reactive oxygen species (ROS) production, DCF-DA fluorescence, ACHN; assay type: cell-based; details: 50 mM D-allose, co-culture 1 hour, vs DMSO
Description: as §6

TXNIP [7] = assay: TXNIP expression (Western blotting) in Caki-1; assay type: cell-based, human; details: Caki-1, 10, 25 or 50 mM D-allose, 48 hours
Description: (§7) A human renal cell carcinoma cell line (Caki-1 or Caki-2) was seeded at 5.0×10^5 in a 100 mm dish and cultured for 24 hours, after which it was co-cultured with D-allose (10, 25 or 50 mM). After 48 hours, the cells were recovered and the protein was extracted, and the concentration of each protein was measured using a Bio-Rad Protein Assay Kit (Bio-Rad, Laboratories, Inc. USA). A protein sample ([…]) was electrophoresed on 10% Mini-PROTAN TGX Precast Gel (Bio-Rad) and a Trans-Blot Turbo transfer system (Bio-Rad) was used for transfer onto a PVDF Western Blotting Membrane. After blocking treatment for 1 hour (Superblock T20. Thermo, Rockford. Ill., USA), anti-TXNIP antibody (D5F3E, CST. USA. 1:1000) was used as primary antibody for reaction using an iBind Flex Western System (Thermo). The loading control used was β-actin (ab8227, abcam, CamBridge, UK, 1:1000).

TXNIP [8] = assay: TXNIP expression (Western blotting) in Caki-2; assay type: cell-based, human; details: Caki-2, 10, 25 or 50 mM D-allose, 48 hours
Description: as §7

Question: What does the source list for `O=C[C@H](O)[C@H](O)[C@H](O)[C@H](O)CO` [D-allose]?
Answer: tumor D-allose concentration with oral administration relative to intraperitoneal administration ([1]; 400 mg/kg, Caki-1 and ACHN tumors (not distinguished)): about 80%; D-allose detected in tumor ([1]; ACHN tumors, 400 mg/kg): detected in all of the tumors; D-allose detected in tumor ([1]; Caki-1 tumors, 400 mg/kg): detected in all of the tumors; time of maximum intratumoral D-allose concentration ([1]; Caki-1 tumors, oral administration, 400 mg/kg): 1 h; uptake into renal cell carcinoma compared to non-transintestinal (intraperitoneal) administration ([1]; transintestinal administration, summary statement): equivalent rate or with approximately about 20% reduction; tumor volume at the 32nd day compared to tumor volume before D-allose administration ([2]; oral 400 mg/kg once a day for 32 days): significantly reduced; tumor volume compared to the control group ([2]; oral 400 mg/kg once a day, after the 8th day, Mann-Whitney U test): significantly reduced; nuclear fission in HE stained tumor tissue ([2]; oral 400 mg/kg/day, 32nd day, evaluation by a pathology specialist): reduced nuclear fission; body weight compared to the control group ([3]; oral 400 mg/kg once a day, 32-day observation period): no significant difference; HE staining images of kidney tissue compared to the control group ([3]; oral 400 mg/kg/day, 32nd day): No particular difference; HE staining images of liver tissue compared to the control group ([3]; oral 400 mg/kg/day, 32nd day): No particular difference; tumor volume compared to the D-glucose group ([4]; intraperitoneal 400 mg/kg once per day for 30 days, after the 18th day): significantly smaller; tumor volume compared to the D-glucose group ([4]; oral 100 mg/kg once per day for 30 days, 100 mg/kg): no significant difference; also recorded: has not exhibited the anticancer effect; intracellular ROS [5]: significantly increased; intracellular ROS [6]: significantly increased; TXNIP expression (TXNIP [7]): increases TXNIP expression in a D-allose dose-dependent manner; TXNIP expression (TXNIP [8]): increases TXNIP expression in a D-allose dose-dependent manner
